Data reported in the supplement of paper PMC10307832.

Key:
Experiment in all cases: relative viability (nuclei count vs DMSO), 5 days (fraction); higher = more cells survive
HCC-78 = system: HCC-78
Summary of the method: (§1)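 Lung cancer cell lines were pin-tool dosed in 1536-well plates on the day after seeding, with either a lone drug or a fixed anchor-drug dose plus five library-drug doses (not always all listed) in √10 steps. Nuclei were counted on 4× images after 5 days. Relative viability is the ratio of treated-well to vehicle-well nuclei counts, with each value a median of duplicate plates.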

NCI-H1993 = system: NCI-H1993
Summary of the method: as §1

UMC-11 = system: UMC-11
Summary of the method: as §1

NCI-H1563 = system: NCI-H1563
Summary of the method: as §1

BEN = system: BEN
Summary of the method: as §1

LXF-289 = system: LXF-289
Summary of the method: as §1

LC-2-ad = system: LC-2-ad
Summary of the method: as §1

RERF-LC-KJ = system: RERF-LC-KJ
Summary of the method: as §1

HARA = system: HARA
Summary of the method: as §1

NCI-H650 = system: NCI-H650
Summary of the method: as §1

LOU-NH91 = system: LOU-NH91
Summary of the method: as §1

LU99A = system: LU99A
Summary of the method: as §1

H3255 = system: H3255
Summary of the method: as §1

EMC-BAC-2 = system: EMC-BAC-2
Summary of the method: as §1

NCI-H2126 = system: NCI-H2126
Summary of the method: as §1

201T = system: 201T
Summary of the method: as §1

HOP-62 = system: HOP-62
Summary of the method: as §1

NCI-H2087 = system: NCI-H2087
Summary of the method: as §1

COR-L 105 = system: COR-L 105
Summary of the method: as §1

Question: Which results are given for CCNC(=O)c1noc(-c2cc(C(C)C)c(O)cc2O)c1-c1ccc(CN2CCOCC2)cc1 [Luminespib] + CC(C)C[C@H](NC(=O)[C@H](Cc1ccccc1)NC(=O)c1cnccn1)B(O)O [Bortezomib] (partner 0.002 µM)?
Answer: relative viability (HCC-78; first compound 0.002 µM): 0.441; relative viability (HCC-78; first compound 0.006325 µM): 0.527; relative viability (HCC-78; first compound 0.06325 µM): 0.745; relative viability (HCC-78; first compound 0.2 µM): 0.262; relative viability (NCI-H1993; first compound 0.002 µM): 0.998; relative viability (NCI-H1993; first compound 0.006325 µM): 1.12; relative viability (NCI-H1993; first compound 0.02 µM): 0.68; relative viability (NCI-H1993; first compound 0.06325 µM): 0.816; relative viability (NCI-H1993; first compound 0.2 µM): 0.374; relative viability (UMC-11; first compound 0.002 µM): 0.838; relative viability (UMC-11; first compound 0.006325 µM): 0.616; relative viability (UMC-11; first compound 0.02 µM): 0.365; relative viability (UMC-11; first compound 0.06325 µM): 0.226; relative viability (UMC-11; first compound 0.2 µM): 0.087; relative viability (NCI-H1563; first compound 0.002 µM): 0.956; relative viability (NCI-H1563; first compound 0.006325 µM): 0.821; relative viability (NCI-H1563; first compound 0.02 µM): 0.535; relative viability (NCI-H1563; first compound 0.06325 µM): 0.479; relative viability (NCI-H1563; first compound 0.2 µM): 0.507; relative viability (BEN; first compound 0.002 µM): 0.914; relative viability (BEN; first compound 0.006325 µM): 0.542; relative viability (BEN; first compound 0.02 µM): 0.438; relative viability (BEN; first compound 0.06325 µM): 0.424; relative viability (BEN; first compound 0.2 µM): 0.239; relative viability (LXF-289; first compound 0.002 µM): 0.969; relative viability (LXF-289; first compound 0.006325 µM): 0.951; relative viability (LXF-289; first compound 0.02 µM): 1.04; relative viability (LXF-289; first compound 0.06325 µM): 0.373; relative viability (LXF-289; first compound 0.2 µM): 0.105; relative viability (LC-2-ad; first compound 0.002 µM): 0.733; relative viability (LC-2-ad; first compound 0.006325 µM): 1.02; relative viability (LC-2-ad; first compound 0.02 µM): 1.1; relative viability (LC-2-ad; first compound 0.06325 µM): 0.133; relative viability (LC-2-ad; first compound 0.2 µM): 0.0947; relative viability (RERF-LC-KJ; first compound 0.002 µM): 1.06; relative viability (RERF-LC-KJ; first compound 0.006325 µM): 1.13; relative viability (RERF-LC-KJ; first compound 0.02 µM): 1.06; relative viability (RERF-LC-KJ; first compound 0.06325 µM): 0.69; relative viability (RERF-LC-KJ; first compound 0.2 µM): 0.268; relative viability (HARA; first compound 0.002 µM): 1.12; relative viability (HARA; first compound 0.006325 µM): 1; relative viability (HARA; first compound 0.02 µM): 1.14; relative viability (HARA; first compound 0.06325 µM): 0.474; relative viability (HARA; first compound 0.2 µM): 0.0833; relative viability (NCI-H650; first compound 0.002 µM): 0.737; relative viability (NCI-H650; first compound 0.006325 µM): 0.716; relative viability (NCI-H650; first compound 0.02 µM): 0.651; relative viability (NCI-H650; first compound 0.06325 µM): 0.124; relative viability (NCI-H650; first compound 0.2 µM): 0.103; relative viability (LOU-NH91; first compound 0.002 µM): 0.513; relative viability (LOU-NH91; first compound 0.006325 µM): 0.484; relative viability (LOU-NH91; first compound 0.02 µM): 0.518; relative viability (LOU-NH91; first compound 0.06325 µM): 0.451; relative viability (LOU-NH91; first compound 0.2 µM): 0.389; relative viability (LU99A; first compound 0.002 µM): 1.3; relative viability (LU99A; first compound 0.006325 µM): 1.11; relative viability (LU99A; first compound 0.02 µM): 0.538; relative viability (LU99A; first compound 0.06325 µM): 0.105; relative viability (LU99A; first compound 0.2 µM): 0.117; relative viability (H3255; first compound 0.002 µM): 0.615; relative viability (H3255; first compound 0.006325 µM): 0.466; relative viability (H3255; first compound 0.02 µM): 0.472; relative viability (H3255; first compound 0.06325 µM): 0.376; relative viability (H3255; first compound 0.2 µM): 0.194; relative viability (EMC-BAC-2; first compound 0.002 µM): 1.1; relative viability (EMC-BAC-2; first compound 0.006325 µM): 1.02; relative viability (EMC-BAC-2; first compound 0.02 µM): 0.844; relative viability (EMC-BAC-2; first compound 0.06325 µM): 1.1; relative viability (EMC-BAC-2; first compound 0.2 µM): 0.913; relative viability (NCI-H2126; first compound 0.002 µM): 1.09; relative viability (NCI-H2126; first compound 0.006325 µM): 1.03; relative viability (NCI-H2126; first compound 0.02 µM): 0.79; relative viability (NCI-H2126; first compound 0.06325 µM): 1.07; relative viability (NCI-H2126; first compound 0.2 µM): 0.823; relative viability (201T; first compound 0.002 µM): 1.11; relative viability (201T; first compound 0.006325 µM): 1.07; relative viability (201T; first compound 0.02 µM): 0.937; relative viability (201T; first compound 0.06325 µM): 1.09; relative viability (201T; first compound 0.2 µM): 1.09; relative viability (HOP-62; first compound 0.002 µM): 0.652; relative viability (HOP-62; first compound 0.006325 µM): 0.924; relative viability (HOP-62; first compound 0.02 µM): 0.852; relative viability (HOP-62; first compound 0.06325 µM): 0.856; relative viability (HOP-62; first compound 0.2 µM): 0.0907; relative viability (NCI-H2087; first compound 0.002 µM): 1.03; relative viability (NCI-H2087; first compound 0.006325 µM): 0.676; relative viability (NCI-H2087; first compound 0.02 µM): 0.796; relative viability (NCI-H2087; first compound 0.06325 µM): 0.141; relative viability (NCI-H2087; first compound 0.2 µM): 0.142; relative viability (COR-L 105; first compound 0.002 µM): 0.992; relative viability (COR-L 105; first compound 0.006325 µM): 0.75; relative viability (COR-L 105; first compound 0.02 µM): 0.342; relative viability (COR-L 105; first compound 0.06325 µM): 0.176; relative viability (COR-L 105; first compound 0.2 µM): 0.206
